Results on four substances are retold here after publication PMC6693507 (Analytical chemistry, 2019).

For data set [1], the target named is T1, ACE (Mus musculus, UniProt P09470).
T1 sequence (P09470 35-1312): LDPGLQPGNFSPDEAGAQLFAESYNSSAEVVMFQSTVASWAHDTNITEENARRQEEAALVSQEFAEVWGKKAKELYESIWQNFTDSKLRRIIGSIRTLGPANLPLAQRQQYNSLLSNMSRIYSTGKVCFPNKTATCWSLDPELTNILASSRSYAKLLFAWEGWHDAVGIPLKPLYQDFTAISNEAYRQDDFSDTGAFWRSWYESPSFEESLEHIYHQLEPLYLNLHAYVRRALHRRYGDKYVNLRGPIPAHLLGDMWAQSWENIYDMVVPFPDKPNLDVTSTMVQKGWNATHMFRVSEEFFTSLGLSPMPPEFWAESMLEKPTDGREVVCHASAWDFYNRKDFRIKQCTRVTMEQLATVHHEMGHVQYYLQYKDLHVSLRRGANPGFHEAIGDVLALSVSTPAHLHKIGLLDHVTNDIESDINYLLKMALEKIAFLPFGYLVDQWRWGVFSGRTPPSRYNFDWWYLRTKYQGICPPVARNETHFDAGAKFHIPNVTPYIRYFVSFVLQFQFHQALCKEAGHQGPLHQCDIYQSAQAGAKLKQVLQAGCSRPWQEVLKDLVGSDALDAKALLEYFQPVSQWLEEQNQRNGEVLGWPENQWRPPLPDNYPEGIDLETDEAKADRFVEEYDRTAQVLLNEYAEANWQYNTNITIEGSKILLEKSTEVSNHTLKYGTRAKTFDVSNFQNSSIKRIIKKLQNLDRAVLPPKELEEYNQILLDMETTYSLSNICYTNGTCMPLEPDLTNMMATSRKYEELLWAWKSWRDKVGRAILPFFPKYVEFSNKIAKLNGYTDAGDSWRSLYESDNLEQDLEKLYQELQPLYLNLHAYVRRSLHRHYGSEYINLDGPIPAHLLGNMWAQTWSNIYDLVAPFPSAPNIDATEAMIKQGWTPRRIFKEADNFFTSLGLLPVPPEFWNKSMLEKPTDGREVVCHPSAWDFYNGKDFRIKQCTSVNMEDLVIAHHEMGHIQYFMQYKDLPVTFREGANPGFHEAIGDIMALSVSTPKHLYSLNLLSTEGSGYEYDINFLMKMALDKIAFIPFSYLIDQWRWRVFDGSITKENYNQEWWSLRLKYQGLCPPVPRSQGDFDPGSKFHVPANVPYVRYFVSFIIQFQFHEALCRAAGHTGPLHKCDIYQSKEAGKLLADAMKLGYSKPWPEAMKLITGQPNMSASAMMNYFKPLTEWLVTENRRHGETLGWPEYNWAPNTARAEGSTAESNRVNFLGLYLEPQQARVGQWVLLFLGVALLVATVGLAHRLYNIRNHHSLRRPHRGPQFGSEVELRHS
As to the kind of experiment: In vitro ACE cleavage of synthetic peptides, MALDI-TOF MS. Format: biochemical. To be noted: 2 pmol/μL peptide, WT ACE or NKO ACE, 30 min, 37 °C.

Data set [2] deals with WT ACE. The data set is described as follows: 100 μL of HEPES buffer. To be noted: mouse (ACE purified from mouse lung and kidney), 37 °C, up to 30 min.

Consider “FPDGTKEMD [serine-protease inhibitor A3K (22–30)]”, for which the “cleavage products detectable by MALDI-MS” value in data set [1] is on record as “not detectable”. As for FPRSPL, the not cleaved entry in data set [2] is given as “not further cleaved by ACE”. As to “FSSLMNLEEKPAPAA [apolipoprotein A-II (87–101)]”, the “cleavage products detectable by MALDI-MS” value in data set [1] is recorded as “not detectable”.

WGTGSPRPG: the not cleaved result in data set [2] was “not further cleaved by ACE”.
